According to patent US20120070417A1, “ANTI-INFLUENZA FORMULATIONS AND METHODS” (priority 2009, published 2012):
Like-named read-outs stand apart in the source and are kept apart here.

Tested on: Influenza A/WSN/33/1
Format: cell-based

## CC(=O)NC1[C@@H](NC(=N)N)C=C(C(=O)O)O[C@H]1[C@H](O)[C@H](O)CO (stereo partly drawn) [zanamivir, 5-(acetylamino)-4-[(aminoiminomethyl)-amino]-2,6-anhydro-3,4,5-trideoxy-D-glycero-D-galacto-non-2-enoic acid]
0.1 nM zanamivir alone
  reduced viral titers compared to the untreated control: 40 fold
[…], p<0.01 vs untreated (Air) control
  viral infection, dose response: reduced viral infection in a dose responsive manner

## CCOC(=O)C1=C[C@@H](OC(CC)CC)[C@H](NC(C)=O)[C@@H](N)C1 [oseltamivir, (3R,4R,5S)-4-acetylamino-5-amino-3(1-ethylpropoxy)-1-cyclohexene-1-carboxylic acid ethyl ester]
1 nM oseltamivir in basolateral media
  reduced influenza titers compared to untreated (air) control: 5 fold

## CC(N)C12CC3CC(CC(C3)C1)C2 (stereo not drawn) [rimantadine]
1 nM rimantadine in basolateral media, p>0.05
  reduced influenza titers compared to untreated (air) control: 9.6 fold
10 nM rimantadine in basolateral media, p<0.001
  reduced viral titers compared to the untreated control: 185 fold

## NC(=O)c1ncn([C@@H]2O[C@H](CO)[C@@H](O)[C@H]2O)n1 [ribavirin]
10 nM ribavirin in basolateral media, p>0.05
  reduced influenza titers compared to untreated (air) control: 6.3 fold
